Ends that are not written are not given here.

The values below come from patent publication US7897569B2, “Use of HMGB fragments as anti-inflammatory agents” (The Feinstein Institute for Medical Research, priority 2001, dated 2011).

This assay concerns RAW 264.7 cells. The experiment in a line: TNF release from RAW 264.7 cells (L929 cytotoxicity bioassay). It counts as cell-based, murine. Conditions: for TNF release by synthetic peptide fragment of B box: no polymyxin B. How it is done:
Murine macrophage-like RAW 264.7 cells (American Type Culture Collection, Rockville, Md.) were cultured in RPMI 1640 medium (Life Technologies, Grand Island N.Y.) supplemented with 10% fetal bovine serum (Gemini, Catabasas, Calif.), penicillin and streptomycin (Life Technologies) and were used at 90% confluence in serum-free Opti-MEM I medium (Life Technologies, Grand Island, N.Y.). […] Polymyxin B was not used in experiments of synthetic peptide studies.
TNF release was measured by a standard murine fibroblast L929 (ATCC, American Type Culture Collection, Rockville, Md.) cytotoxicity bioassay (Bianchi et al., Journal of Experimental Medicine 183:927-936, 1996) with the minimum detectable concentration of 30 pg/ml. Recombinant mouse TNF was obtained from R&D system Inc., (Minneapolis, Minn.). Murine fibroblast L929 cells (ATCC) were cultured in DMEM (Life Technologies, Grand Island, N.Y.) supplemented with 10% fetal bovine serum (Gemini, Catabasas, Calif.), penicillin (50 units/ml) and streptomycin (50 μg/ml) (Life Technologies) in a humidified incubator with 5% CO2.
The effect of the mutants on TNF release from Murine macrophage-like RAW 264.7 cells (ATCC) was carried out as follows. RAW 264.7 cells were cultured in RPMI 1640 medium (Life Technologies, Grand Island N.Y.) supplemented with 10% fetal bovine serum (Gemini, Catabasas, Calif.), penicillin and streptomycin (Life Technologies). Polymyxin (Sigma, St. Louis, Mo.) was added at 100 units/ml to suppress the activity of any contaminating LPS. Cells were incubated with 1 μg/ml of full length (wild-type) HMGB1 and each HMGB1 mutant protein in Opti-MEM I medium for 8 hours, and conditioned supernatants (containing TNF which had been released from the cells) were collected and TNF released from the cells was measured by a standard murine fibroblast L929 (ATCC) cytotoxicity bioassay (Bianchi et al., supra) with the minimum detectable concentration of 30 pg/ml. Recombinant mouse TNF was obtained from R & D Systems Inc., (Minneapolis, Minn.) and used as control in these experiments. Data in FIG. 1 are all presented as mean+SEM unless otherwise indicated. (N=6-10).
To further examine the effect of HMGB1 B box on cytokine production, varying amounts of HMGB1 B box were evaluated for the effects on TNF, IL-1 B, and IL-6 production in murine macrophage-like RAW 264.7 cells. Conditioned media were harvested and measured for TNF, IL-1β and IL-6 levels. TNF levels were measured as described herein, and IL-1β and IL-6 levels were measured using the mouse IL-1β and IL-6 enzyme-linked immunosorbent assay (ELISA) kits (R&D System Inc., Minneapolis, Minn.) and N>5 for all experiments.
The kinetics of B box-induced TNF release was also examined. TNF release and TNF mRNA expression was measured in RAW 264.7 cells induced by B box polypeptide or GST tag polypeptide only used as a control (vector) (10 μg/ml) for 0 to 48 hours. Supernatants were analyzed for TNF protein levels by an L929 cytotoxicity assay (N=3-5) as described herein. For mRNA measurement, cells were plated in 100 mm plate and treated in Opti-MEM I medium containing B box polypeptide or the vector alone for 0, 4, 8, or 24 hours, as indicated in FIG. 2D. The vector only sample was assayed at the 4 hour time point. Cells were scraped off the plate and total RNA was isolated by RNAzol B method in accordance with the manufacturer's instructions (Tel-Test “B”, Inc., Friendswood, Tex.). TNF (287 bp) was measured by RNase protection assay (Ambion, Austin, Tex.). Equal loading and the integrity of RNA was verified by ethidium bromide staining of the RNA sample on agarose-formaldehyde gel. […] TNF mRNA expression was maximal at 4 hours and decreased at 8 and 24 hours. […] A similar study was carried out measuring TNF protein released from RAW 264.7 cells 0, 4, 8, 24, 32 or 48 hours after administration of B box or vector only (GST tag), using the L929 cytotoxicity assay described herein. […] Data are representative of three separate experiments. […]

With “16-25: Synthetic peptide fragment, amino acids 16-25 of the HMGB1 B box (SEQ ID NO:20) (LFCSEYRPKI)”, the “TNF release by synthetic peptide fragment of B box” value (shortened to “TNF release … of B box”) (peptide 10 μg/ml, 10 hours) is “did not induce TNF release”.

For “30-49: Synthetic peptide fragment, amino acids 30-49 of the HMGB1 B box (SEQ ID NO:20) (PGLSIGDVAKKLGEMWNNTA)”, under “peptide 10 μg/ml, 10 hours”, the “TNF release … of B box” value was “did not induce TNF release”.

As for “45-64: Synthetic peptide fragment, amino acids 45-64 of the HMGB1 B box (SEQ ID NO:20) (WNNTAADDKQPYEKKAAKLK)”, the “TNF release … of B box” value (peptide 10 μg/ml, 10 hours) is recorded as “did not induce TNF release”.

Take “60-74: Synthetic peptide fragment, amino acids 60-74 of the HMGB1 B box (SEQ ID NO:20) (AAKLKEKYEKDIAAY)”: the “TNF release … of B box” value (peptide 10 μg/ml, 10 hours) is on record as “did not induce TNF release”.

For the molecule “fkdpnapkrlpsafflfcse (FKDPNAPKRLPSAFFLFCSE; not fully specified; printed as fkdpnapkrlpsafflfcse) [1-20-mer]”, where the note is “peptide 10 μg/ml, 10 hours”, the “TNF stimulating activity relative to full length B box and HMGB1” value is listed as “less potent than either the full length synthetic B box (1-74-mer), or full length HMGB1”; the “TNF release … of B box” value is “TNF-stimulating activity was retained”.

B1: carboxyl-truncated HMGB1: Human HMGB1 mutant in which the carboxy terminus was deleted, SEQ ID NO:19 (protein)
chain: MGKGDPKKPTGKMSSYAFFVQTCREEHKKKHPDASVNFSEFSKKCSERWKTMSAKEKGKFEDMAKADKARYEREMKTYIPPKGETKKKFKDPNAPKRLPSAFFLFCSEYRPKIKGEHPGLSIGDVAKKLGEMWNNTAADDKQPYEKKAAKLKEKYEKDIAAYRAKGKPDAAKKGVVKAEKSK
Consider B1, for which the TNF release entry (1 μg/ml protein, 8 hours, RAW 264.7 cells) is reported as “significantly stimulated TNF release”.
